From ChEMBL document CHEMBL5120859, “Optimization of 4-arylthiophene-3-carboxylic acid derivatives as inhibitors of ANO1: Lead optimization studies toward their analgesic efficacy for inflammatory pain” (Eur J Med Chem, 2022)

Target: T1, Anoctamin-1 (Homo sapiens, UniProt Q5XXA6)
T1 sequence (Q5XXA6 whole entry): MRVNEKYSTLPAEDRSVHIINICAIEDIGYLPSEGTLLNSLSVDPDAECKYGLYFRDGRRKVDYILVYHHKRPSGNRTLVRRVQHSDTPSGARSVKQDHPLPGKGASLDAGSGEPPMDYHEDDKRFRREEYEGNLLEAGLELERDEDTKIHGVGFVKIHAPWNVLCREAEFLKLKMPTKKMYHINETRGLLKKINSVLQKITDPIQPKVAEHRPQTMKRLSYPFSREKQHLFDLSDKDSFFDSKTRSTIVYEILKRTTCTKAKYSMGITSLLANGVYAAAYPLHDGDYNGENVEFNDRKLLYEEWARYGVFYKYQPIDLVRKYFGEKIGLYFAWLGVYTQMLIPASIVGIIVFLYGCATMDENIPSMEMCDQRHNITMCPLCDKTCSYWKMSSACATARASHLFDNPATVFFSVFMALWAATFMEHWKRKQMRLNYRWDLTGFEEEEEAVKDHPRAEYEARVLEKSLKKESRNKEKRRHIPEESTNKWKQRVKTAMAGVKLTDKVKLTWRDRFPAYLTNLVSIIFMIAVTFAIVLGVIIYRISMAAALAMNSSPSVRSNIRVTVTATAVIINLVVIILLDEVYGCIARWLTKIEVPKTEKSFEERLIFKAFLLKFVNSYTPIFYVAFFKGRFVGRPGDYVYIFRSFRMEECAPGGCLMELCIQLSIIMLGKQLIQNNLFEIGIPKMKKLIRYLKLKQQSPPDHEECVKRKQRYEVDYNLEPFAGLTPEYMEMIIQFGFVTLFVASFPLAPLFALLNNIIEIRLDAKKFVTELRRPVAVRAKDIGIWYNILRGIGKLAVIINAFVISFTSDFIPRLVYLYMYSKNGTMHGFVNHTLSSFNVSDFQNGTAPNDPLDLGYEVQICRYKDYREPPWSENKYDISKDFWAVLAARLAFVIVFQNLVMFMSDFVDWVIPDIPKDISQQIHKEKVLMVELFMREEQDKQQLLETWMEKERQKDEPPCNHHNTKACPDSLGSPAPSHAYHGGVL
Experiment: Inhibition of YFP tagged ANO1 (unknown origin) expressed in FRT cells incubated for 24 hrs by fluorescence plate reader assay
Assay type: cell-based

Work on `O=C(Nc1scc(-c2ccc(Cl)cc2)c1C(=O)O)c1cc(F)ccc1F` yielded an IC50 of 24 nM.
